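Assay format: 96-well plates, 48-hour exposure. Abbreviation: GI50, concentration required for 50% inhibition of growth.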 Active and inactive are the calls of the source. No stated cut-off is given here; in the data, active = GI50 up to about 1.1 µM and inactive = higher.
Tests used:
Assay in all cases: NCI-60 cell line screen, 48 h
[1] = tested on: A549
[2] = tested on: ACHN
[3] = tested on: COLO 205
[4] = tested on: EKVX
[5] = tested on: HOP-62
[6] = tested on: IGROV-1
[7] = tested on: KM12
[8] = tested on: MDA-MB-231
[9] = tested on: MDA-MB-435
[10] = tested on: MOLT-4
[11] = tested on: NCI-H460
[12] = tested on: NCI-H522
[13] = tested on: OVCAR-5
[14] = tested on: RPMI-8226
[15] = tested on: SF-268
[16] = tested on: SK-MEL-5
[17] = tested on: SK-OV-3
[18] = tested on: U-251
[19] = tested on: UACC-257
[20] = tested on: UO-31

| SMILES | GI50 [1] | GI50 [2] | GI50 [3] | GI50 [4] | GI50 [5] | GI50 [6] | GI50 [7] | GI50 [8] | GI50 [9] | GI50 [10] | GI50 [11] | GI50 [12] | GI50 [13] | GI50 [14] | GI50 [15] | GI50 [16] | GI50 [17] | GI50 [18] | GI50 [19] | GI50 [20] |
| --- | --- | --- | --- | --- | --- | --- | --- | --- | --- | --- | --- | --- | --- | --- | --- | --- | --- | --- | --- | --- |
| O=C1CCC(c2ccccc2)=NN1c1nc2ccccc2s1 | 35.9 µM (inactive) | 29.9 µM (inactive) | 13.2 µM (inactive) | 30.8 µM (inactive) | 36.9 µM (inactive) | 34.9 µM (inactive) | 29.6 µM (inactive) | 20.9 µM (inactive) | 23.3 µM (inactive) | 28 µM (inactive) | 27.7 µM (inactive) | 24.5 µM (inactive) | > 63.5 µM (inactive) | 27 µM (inactive) | 27.2 µM (inactive) | 20.4 µM (inactive) | 25.2 µM (inactive) | 29.4 µM (inactive) | 27.2 µM (inactive) | 31.5 µM (inactive) |
| CCOc1ccc(C2c3[nH]c4ccccc4c3CCN2C(=O)c2cccs2)cc1 (stereo unspecified) | 7.03 µM (inactive) | 44.5 µM (inactive) | 8.47 µM (inactive) | 7.35 µM (inactive) | 4.67 µM (inactive) | 10.2 µM (inactive) | 9.08 µM (inactive) | 9.33 µM (inactive) | 6.61 µM (inactive) | 2.65 µM (inactive) | 2.2 µM (inactive) | 9.79 µM (inactive) | > 100 µM (inactive) | 5.41 µM (inactive) | 52.4 µM (inactive) | 5.75 µM (inactive) | > 100 µM (inactive) | 4.07 µM (inactive) | 17.3 µM (inactive) | 14.2 µM (inactive) |
| Cc1ccc(C2SCC(=O)N2c2ccc(-n3c(-c4ccccc4)nc4ccccc4c3=O)cc2)cc1 (stereo unspecified) | 25.1 µM (inactive) | 16.6 µM (inactive) | 30.1 µM (inactive) | – | 12.9 µM (inactive) | 20.5 µM (inactive) | 16.6 µM (inactive) | 4.84 µM (inactive) | 21.1 µM (inactive) | 7.1 µM (inactive) | 9.42 µM (inactive) | 13.5 µM (inactive) | 42.4 µM (inactive) | 13.7 µM (inactive) | 24.2 µM (inactive) | 11.6 µM (inactive) | 4.95 µM (inactive) | 5.3 µM (inactive) | 24.9 µM (inactive) | 16.2 µM (inactive) |
| S=C(Nc1ccc2c(c1)oc1ccccc12)c1cccnc1 | 37.6 µM (inactive) | 29.2 µM (inactive) | > 100 µM (inactive) | 65.9 µM (inactive) | 17.1 µM (inactive) | 41.1 µM (inactive) | > 100 µM (inactive) | > 100 µM (inactive) | > 100 µM (inactive) | > 100 µM (inactive) | 24.6 µM (inactive) | 22 µM (inactive) | 55.8 µM (inactive) | > 100 µM (inactive) | 29.5 µM (inactive) | 70.8 µM (inactive) | 20.4 µM (inactive) | 21.6 µM (inactive) | – | 22.7 µM (inactive) |
| O=NC1C(Cl)C2CC1C1C(Br)C(Br)CC21 (stereo unspecified) | > 100 µM (inactive) | > 100 µM (inactive) | > 100 µM (inactive) | > 100 µM (inactive) | > 100 µM (inactive) | > 100 µM (inactive) | > 100 µM (inactive) | > 100 µM (inactive) | > 100 µM (inactive) | > 100 µM (inactive) | > 100 µM (inactive) | > 100 µM (inactive) | > 100 µM (inactive) | 20.8 µM (inactive) | > 100 µM (inactive) | > 100 µM (inactive) | > 100 µM (inactive) | > 100 µM (inactive) | – | > 100 µM (inactive) |
| CN(Cc1nc2c(N)nc(N)nc2nc1N)c1ccc(C(=O)NC(CCC(=O)O)C(=O)O)cc1 (stereo unspecified) | – | 0.041 µM (active) | > 100 µM (inactive) | – | 0.231 µM (active) | 3.07 µM (inactive) | > 100 µM (inactive) | > 100 µM (inactive) | 0.0277 µM (active) | < 0.0163 µM (active) | < 0.0122 µM (active) | > 33.6 µM (inactive) | 17.7 µM (inactive) | > 75.2 µM (inactive) | 0.299 µM (active) | 1.55 µM (inactive) | > 100 µM (inactive) | 0.494 µM (active) | 5.58 µM (inactive) | 0.561 µM (active) |
| O=S(=O)(O)c1ccccc1/N=N\c1ccc(/N=N/c2c(O)ccc3ccccc23)c(S(=O)(=O)O)c1 | > 100 µM (inactive) | > 100 µM (inactive) | > 100 µM (inactive) | > 100 µM (inactive) | > 100 µM (inactive) | > 100 µM (inactive) | > 100 µM (inactive) | > 100 µM (inactive) | > 100 µM (inactive) | > 100 µM (inactive) | – | > 100 µM (inactive) | > 100 µM (inactive) | > 100 µM (inactive) | > 100 µM (inactive) | > 100 µM (inactive) | > 100 µM (inactive) | > 100 µM (inactive) | > 100 µM (inactive) | > 100 µM (inactive) |
| CC(=O)Oc1cc(-c2oc3cc(OC(C)=O)c(C4OC(CO)C(O)C(O)C4O)c(OC(C)=O)c3c(=O)c2O)c(OC(C)=O)cc1O (stereo unspecified) | > 100 µM (inactive) | > 100 µM (inactive) | > 100 µM (inactive) | > 100 µM (inactive) | > 100 µM (inactive) | > 100 µM (inactive) | > 100 µM (inactive) | > 100 µM (inactive) | > 100 µM (inactive) | > 100 µM (inactive) | > 100 µM (inactive) | 72.6 µM (inactive) | > 100 µM (inactive) | 56.4 µM (inactive) | – | > 100 µM (inactive) | > 100 µM (inactive) | > 100 µM (inactive) | > 100 µM (inactive) | > 100 µM (inactive) |
| Cc1ccc(C(=O)Nc2ccc(CP(=O)(O)O)cc2CP(=O)(O)O)cc1NC(=O)Nc1cc(C(=O)Nc2ccc(CP(=O)(O)O)cc2CP(=O)(O)O)ccc1C | > 100 µM (inactive) | > 100 µM (inactive) | > 100 µM (inactive) | > 100 µM (inactive) | > 100 µM (inactive) | > 100 µM (inactive) | > 100 µM (inactive) | > 100 µM (inactive) | > 100 µM (inactive) | – | > 100 µM (inactive) | 64.9 µM (inactive) | > 100 µM (inactive) | > 100 µM (inactive) | > 100 µM (inactive) | > 100 µM (inactive) | > 100 µM (inactive) | > 100 µM (inactive) | > 100 µM (inactive) | > 100 µM (inactive) |
| COC(=O)[C@H](NC(=O)OC(C)(C)C)[C@H]1COC(C)(C)O1 | > 100 µM (inactive) | > 100 µM (inactive) | > 100 µM (inactive) | > 100 µM (inactive) | > 100 µM (inactive) | > 100 µM (inactive) | > 100 µM (inactive) | > 100 µM (inactive) | > 100 µM (inactive) | > 100 µM (inactive) | – | > 100 µM (inactive) | > 100 µM (inactive) | > 100 µM (inactive) | > 100 µM (inactive) | > 100 µM (inactive) | > 100 µM (inactive) | > 100 µM (inactive) | > 100 µM (inactive) | > 100 µM (inactive) |
